# Results as given in article PMC9452769 (Molecular Plant Pathology, 2022).
# Target: T1, OxyR (OxyR-His) (Xanthomonas campestris, UniProt Q8PCA2)
# T1 sequence (Q8PCA2 1-313): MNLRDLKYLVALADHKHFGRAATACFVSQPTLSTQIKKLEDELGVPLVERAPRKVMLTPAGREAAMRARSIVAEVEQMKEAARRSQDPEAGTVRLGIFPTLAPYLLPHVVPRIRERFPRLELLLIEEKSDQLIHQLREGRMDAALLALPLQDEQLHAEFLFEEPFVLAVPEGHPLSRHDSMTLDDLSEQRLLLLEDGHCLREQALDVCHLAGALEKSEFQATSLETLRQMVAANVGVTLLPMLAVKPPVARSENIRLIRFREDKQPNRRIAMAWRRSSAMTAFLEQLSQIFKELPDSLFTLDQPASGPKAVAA
# Assay: microscale thermophoresis
# Type: binding
structure (smiles),measurement,value
C[S@@+]([O-])CCCCN=C=S [sulforaphane],Kd,325 ± 105 nM
